Experimental data: US20060235222A1, “Indole-derivative modulators of steroid hormone nuclear receptors” (ELI LILLY AND COMPANY, priority 2003, published 2006)

Legend:
human MR = molecular target: T1, human MR (Homo sapiens, UniProt P08235); test: Mineralocorticoid Receptor Binding Assay (Method 1), [3H]-aldosterone competition; conditions: 0.5 nM [3H]-aldosterone, human MR expressed in Sf9 cells
T1 construct: The full length human MR gene is cloned from a human kidney or human brain cDNA library; inferred from own knowledge of the pAcHLT vector (N); made in house; host or cells: Sf9 insect cells (baculovirus)
T1 sequence (P08235 1-984): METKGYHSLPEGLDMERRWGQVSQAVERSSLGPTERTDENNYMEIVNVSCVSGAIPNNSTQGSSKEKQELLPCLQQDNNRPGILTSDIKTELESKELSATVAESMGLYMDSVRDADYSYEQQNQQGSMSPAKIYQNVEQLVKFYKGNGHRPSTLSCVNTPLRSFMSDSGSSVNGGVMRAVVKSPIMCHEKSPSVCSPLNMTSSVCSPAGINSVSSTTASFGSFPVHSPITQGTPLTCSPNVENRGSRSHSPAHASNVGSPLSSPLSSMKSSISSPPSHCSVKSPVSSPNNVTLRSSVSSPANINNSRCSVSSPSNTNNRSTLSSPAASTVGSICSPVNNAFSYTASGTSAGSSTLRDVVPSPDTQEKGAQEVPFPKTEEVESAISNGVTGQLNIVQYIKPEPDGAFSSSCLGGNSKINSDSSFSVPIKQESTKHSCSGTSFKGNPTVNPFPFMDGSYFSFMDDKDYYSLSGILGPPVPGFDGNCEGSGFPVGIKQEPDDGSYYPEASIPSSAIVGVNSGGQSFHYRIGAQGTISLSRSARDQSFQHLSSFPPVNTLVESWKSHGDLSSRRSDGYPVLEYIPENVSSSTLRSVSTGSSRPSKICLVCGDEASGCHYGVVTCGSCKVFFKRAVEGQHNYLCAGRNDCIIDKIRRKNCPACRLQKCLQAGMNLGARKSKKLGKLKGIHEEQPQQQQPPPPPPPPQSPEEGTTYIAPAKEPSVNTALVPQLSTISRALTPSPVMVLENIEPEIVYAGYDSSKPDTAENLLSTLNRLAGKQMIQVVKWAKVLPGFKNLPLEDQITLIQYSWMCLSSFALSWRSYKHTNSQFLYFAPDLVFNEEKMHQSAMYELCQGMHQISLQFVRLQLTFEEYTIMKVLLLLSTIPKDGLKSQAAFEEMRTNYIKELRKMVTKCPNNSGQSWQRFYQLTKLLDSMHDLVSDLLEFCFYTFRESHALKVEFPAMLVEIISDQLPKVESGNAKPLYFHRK
Method: Mineralocorticoid Receptor Binding Assay (Method 1):
The full length human MR gene is cloned from a human kidney or human brain cDNA library. […] The PCR reaction is performed in a final volume of 50 μl containing about 1 μl of a 50× stock solution of polymerase; about 1 μl of a 50× stock solution of dNTP; about 5 μl of an appropriate PCR buffer; about 1 μl of each primer; about 5 μl of a H. kidney or H. brain cDNA library; and about 36 μl of water. The reaction is allowed to denature for about 30 seconds at 95 degrees Celsius, anneal for about 30 seconds at 55 degrees Celsius, and extend for about 5 minutes at 72 degrees Celsius, the sequence being repeated for a total of about 35 cycles. […] To extract the cDNA product from the agarose gel, the QIAEX II Gel Extraction protocol (QIAGEN, Inc.) is employed according to the manufacturer's instructions. Following extraction, the MR cDNA is cloned into an appropriate cloning vector (Zero Blunt TOPO PCR Cloning Kit (Invitrogen, Inc.) and a pAcHLT-baculovirus transfer vector (B.D./Pharminogen), then expressed in SF9 insect cells, essentially according to manufacturer's instructions. Sf9 cells are grown at a scale where gram quantity cell pellets are obtained for subsequent use in the MR binding assay. Harvested cell pellets are lysed by repeated freeze-thaw cycles (about 4) in a suitable lysis buffer then centrifuged at about 1×10^3 G (with the supernatant being saved for future assays).
MR binding assays are performed in a final total volume of about 250 μl containing about 20-25 μg of protein and 0.5 nM of [^3H]-aldosterone plus varying concentrations of test compound or vehicle. The assay binding buffer consists of 30 mM sodium molybdate, 30 mM of TRIS-HCl, 5 mM sodium phosphate, 5 mM sodium pyrophosphate, and about 10% glycerol, pH=7.5.
Incubations are carried out at 4 degrees Celsius with shaking for about 16 hours. 200 μl aliquots of each incubation are filtered onto Millipore HA 0.45 micron 96-well filter plates, pre-moistened with cold 30 mM TRIS-HCl. The filter plates are suctioned dry with vacuum and immediately washed 3× with cold 30 mM TRIS-HCl. The plates are then punched out and the amount of receptor-ligand complex is determined by liquid scintillation counting using 4 ml of Ready Protein Plus™ liquid scintillation cocktail.

glucocorticoid receptor = molecular target: T2, glucocorticoid receptor (Homo sapiens, UniProt P04150); test: Glucocorticoid Receptor Binding Assay (Method 1), [3H]-dexamethasone competition, A549 cell extract; conditions: 1.86 nM [3H]-dexamethasone, read-out: GR Ki (nM) Method 1
T2 construct: containing 50-200 ug of A549 cell extract and 1.86 nM; host or cells: A549 human lung epithelial cells
T2 sequence (P04150 1-777): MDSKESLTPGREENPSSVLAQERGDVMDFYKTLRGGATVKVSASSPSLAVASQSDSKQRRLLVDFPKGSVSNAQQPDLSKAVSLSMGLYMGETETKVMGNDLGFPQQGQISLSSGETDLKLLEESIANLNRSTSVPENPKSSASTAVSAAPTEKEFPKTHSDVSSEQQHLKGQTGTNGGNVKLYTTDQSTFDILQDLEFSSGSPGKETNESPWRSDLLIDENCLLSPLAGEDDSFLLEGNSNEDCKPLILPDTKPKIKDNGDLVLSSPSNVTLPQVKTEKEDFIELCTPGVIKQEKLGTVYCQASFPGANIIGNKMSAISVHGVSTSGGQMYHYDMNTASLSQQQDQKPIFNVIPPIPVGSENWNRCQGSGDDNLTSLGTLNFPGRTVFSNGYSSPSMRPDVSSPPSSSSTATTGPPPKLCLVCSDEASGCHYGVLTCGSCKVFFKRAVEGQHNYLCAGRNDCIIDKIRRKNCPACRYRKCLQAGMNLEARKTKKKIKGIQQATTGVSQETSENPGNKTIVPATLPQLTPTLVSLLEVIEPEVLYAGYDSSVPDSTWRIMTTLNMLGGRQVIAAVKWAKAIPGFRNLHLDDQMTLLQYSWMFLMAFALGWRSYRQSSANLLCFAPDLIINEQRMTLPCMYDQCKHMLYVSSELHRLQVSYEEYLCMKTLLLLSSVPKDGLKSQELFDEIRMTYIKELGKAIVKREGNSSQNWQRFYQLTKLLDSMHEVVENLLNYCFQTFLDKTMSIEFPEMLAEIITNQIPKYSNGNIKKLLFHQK
Method: Glucocorticoid Receptor Binding Assay (Method 1):
A549 human lung epithelial cells (ATCC) are grown at a scale where gram quantity cell pellets are obtained. Harvested cell pellets are washed twice in cold phosphate buffered saline, centrifuged, and resuspended in cold assay binding buffer. The assay binding buffer consists of 10% glycerol, 50 mM Tris-HCl (pH7.2), 75 mM sodium chloride, 1.5 mM magnesium chloride, 1.5 mM EDTA, and 10 mM sodium molybdate. Cell suspensions were lysed via sonication, centrifuged, and the “extract” supernatant is snap frozen and stored at −80 C until needed.
Incubations are carried out at 4 degrees Celsius for 16 hours. After incubation, 70 ul of 3× dextran-coated charcoal solution is added to each reaction, mixed, and incubated for 8 minutes at RT. 3×-dextran-coated charcoal solution consists of 250 ml assay binding buffer, 3.75 g Norit A charcoal (Sigma), and 1.25 g dextran T-70 (Amersham). Charcoal/unbound radioligand complexes are removed by centrifugation of the plate and 140 ul of supernatant from each well is transferred to another 96 well Optiplate (Packard Instruments). 200 ul of Microscint-20 scinillant (Packard Instruments) is added to each well and amount of receptor bound radioligand is determined using Packard Instruments TopCount instrument.

| SMILES | Ki (human MR) [nM] | Ki (glucocorticoid receptor) [nM] |
| --- | --- | --- |
| COc1ccc(C(C)(c2c[nH]c3c(NS(C)(=O)=O)cccc23)C2CC2)cc1F (stereo not drawn) [Example 123] | < 500 | – |
| COc1cc(C(C)(c2c[nH]c3c(NS(C)(=O)=O)cccc23)C2CC2)ccc1Cl (stereo not drawn) [Example 124, N-{3-[1-(4-Chloro-3-methoxy-phenyl)-1-cyclopropyl-ethyl]-1H-indol-7-yl}-methanesulfonamide] | < 500 | – |
| COc1cc(C(C)(c2c[nH]c3c(NS(C)(=O)=O)cccc23)C2CC2)ccc1F (stereo not drawn) [Example 125, N-{3-[1-Cyclopropyl-1-(4-fluoro-3-methoxy-phenyl)-ethyl]-1H-indol-7-yl}-methanesulfonamide] | < 500 | – |
| CC(c1ccc(F)cc1)(c1c[nH]c2c(NS(C)(=O)=O)cccc12)C1CCC1 (stereo not drawn) [Example 127, N-{3-[1-Cyclobutyl-1-(4-fluoro-phenyl)-ethyl]-1H-indol-7-yl}-methanesulfonamide] | < 500 | – |
| CCC(CC)(c1ccc2c(c1)OCCO2)c1c[nH]c2c(NS(C)(=O)=O)cccc12 [Example 128, N-{3-[1-(2,3-Dihydro-benzo[1,4]dioxin-6-yl)-1-ethyl-propyl]-1H-indol-7-yl}-methanesulfonamide] | < 500 | – |
| CC(c1ccc2c(c1)OCCO2)(c1c[nH]c2c(NS(C)(=O)=O)cccc12)C1CC1 (stereo not drawn) [Example 129, N-{3-[1-Cyclopropyl-1-(2,3-dihydro-benzo[1,4]dioxin-6-yl)-ethyl]-1H-indol-7-yl}-methanesulfonamide] | < 500 | – |
| CC(c1ccc2c(c1)OCO2)(c1c[nH]c2c(NS(C)(=O)=O)cccc12)C1CC1 (stereo not drawn) [Example 131, N-[3-(1-Benzo[1,3]dioxol-5-yl-1-cyclopropyl-ethyl)-1H-indol-7-yl]-methanesulfonamide] | < 500 | – |
| CCC(CC)(c1ccc2c(c1)OCCO2)c1c[nH]c2c(NS(=O)(=O)CC)cccc12 [Example 133, N-{3-[1-(2,3-Dihydro-benzo[1,4]dioxin-6-yl)-1-ethyl-propyl]-1H-indol-7-yl}-ethanesulfonamide] | < 500 | – |
| CCC(CC)(c1ccc2ccn(C(C)=O)c2c1)c1c[nH]c2c(NS(C)(=O)=O)cccc12 [Example 183] | < 500 | – |
| CCC(CC)(c1cccc2oc(C)cc12)c1c[nH]c2c(NS(C)(=O)=O)cccc12 [Example 184] | < 500 | – |
| CCC(CC)(c1ccc2cc(C)oc2c1)c1c[nH]c2c(NS(C)(=O)=O)cccc12 [Example 188] | < 500 | – |
| C[C@](c1ccc2c(c1)OCCO2)(c1c[nH]c2c(NS(C)(=O)=O)cccc12)C1CC1 [Example 194] | < 500 | – |
| CCC(CC)(c1ccc2sc(NC(C)=O)nc2c1)c1c[nH]c2c(NS(C)(=O)=O)cccc12 [Example 196] | < 500 | – |
| CCC(CC)(c1ccc2c(c1)nc(C)n2C)c1c[nH]c2c(NS(C)(=O)=O)cccc12 [Example 198] | < 500 | – |

Next, values leading:

| Ki (human MR) [nM] | Ki (glucocorticoid receptor) [nM] | SMILES |
| --- | --- | --- |
| < 500 | < 500 | CCC(CC)(c1ccc([S@+](C)[O-])cc1)c1c[nH]c2c(NS(C)(=O)=O)cccc12 (stereo in doubt) [Example 49, N-{3-[1-Ethyl-1-(4-methanesulfinyl-phenyl)-propyl]-1H-indol-7-yl}-methanesulfonamide] |
| < 500 | – | CCS(=O)(=O)Nc1cccc2c([C@](C)(c3ccc(F)cc3F)C3CC3)c[nH]c12 (stereo in doubt) [Example 126, Ethanesulfonic acid {3-[1-cyclopropyl-1-(2,4-difluoro-phenyl)-ethyl]-1H-indol-7-yl}-amide] |
| < 500 | < 500 | CCCC(C)(c1ccc(C)cc1)c1c[nH]c2c(NS(C)(=O)=O)cccc12 (stereo not drawn) [Example 1, N-[3-(1-Methyl-1-p-tolyl-butyl)-1H-indol-7-yl]methane sulfonamide] |
| < 500 | < 500 | CCC(CC)(c1cc2ccccc2o1)c1c[nH]c2c(NS(C)(=O)=O)cccc12 [Example 2, N-[3-(1-Benzofuran-2-yl-1-ethyl-propyl)-1H-indol-7-yl]-methanesulfonamide] |
| < 500 | < 500 | CCC(CC)(c1ccc2c(c1)CCO2)c1c[nH]c2c(NS(C)(=O)=O)cccc12 [Example 3, N-{3-[1-(2,3-Dihydro-benzofuran-5-yl)-1-ethyl-propyl]-1H-indol-7-yl}-methanesulfonamide] |
| < 500 | < 500 | CCC(CC)(c1cc2cccc(OC)c2o1)c1c[nH]c2c(NS(C)(=O)=O)cccc12 [Example 4, N-{3-[1-Ethyl-1-(7-methoxy-benzofuran-2-yl)-propyl]-1H-indol-7-yl}-methanesulfonamide] |
| < 500 | – | CC(C)(c1ccccc1-c1ccccc1)c1c[nH]c2c(NS(C)(=O)=O)cccc12 [Example 34, N-[3-(1-Biphenyl-2-yl-1-methyl-ethyl)-1H-indol-7-yl]-methanesulfonamide] |
| < 500 | – | CCC(COC)(c1ccccc1)c1c[nH]c2c(NS(C)(=O)=O)cccc12 (stereo not drawn) [Example 74, N-[3-(1-Methoxymethyl-1-phenyl-propyl)-1H-indol-7-yl]-methanesulfonamide] |
